One series concerns Apis mellifera. The note with it: acute, mortality.
For the next series, the system named is Colinus virginianus. The note with it: acute, oral, mortality.
A further series deals with Coturnix japonica. The following applies: reproduction developmental; duration: 6 weeks; reproduction.
The next series concerns Daphnia magna. The note with it: chronic/long-term; duration: 21 days; mobility.
In another series the test system is Lepomis macrochirus. The note with it: acute; duration: 96 hours; mortality.
A further series deals with Oncorhynchus mykiss. The note with it: chronic/long-term; duration: 87 days; growth.
The subject of another series is Oryctolagus sp. The note with it: developmental; development.
In a further series the test system is Aphidius rhopalosiphi. The series is described as follows: LR50; higher = less toxic. The following applies: acute; duration: 48 hours; mortality.
In another series the test system is Typhlodromus pyri. The series is described as follows: LR50; higher = less toxic. The following applies: chronic/long-term; duration: 7 days; mortality.

The values below come from EPA's ToxValDB 9.5 (doi:10.2903/j.efsa.2014.3508).

A word on the NOAEL: it is the highest dose or exposure tested at which no adverse effect was seen.

Regarding `CCOc1nc(NC)nc(NC(=O)NS(=O)(=O)c2ccccc2C(=O)OC)n1` [Ethametsulfuron-methyl], the LD50 in the series on Apis mellifera (duration: 48 hours, oral, unspecified) is 40.8 µg/piece; with Apis mellifera (duration: 72 hours, dermal) it was 4.62 µg/piece; in the series on Colinus virginianus it was 2250 mg/kg-day; in the series with Rattus norvegicus (acute, oral, mortality), > 5000 mg/kg-day. In addition, the LC50 with Colinus virginianus (duration: 5 days, diet) is > 1160 mg/kg-day; in the series with Lepomis macrochirus, > 123 µg/mL; in the series with Tagia sp. (acute, duration: 14 days, mortality), 116 mg/kg. Also, the NOAEL was 229 mg/kg-day in the series on Coturnix japonica; < 250 mg/kg-day with Oryctolagus sp.; 21 mg/kg-day in the series with Rattus norvegicus (chronic, duration: 2 years, clinical chemistry). Further, the NOEC in the series with Daphnia magna turned out to be 4.7 mg/L; with Oncorhynchus mykiss, 5.4 mg/L; in the series with Tagia sp. (chronic/long-term, duration: 56 days, reproduction), 27.3 mg/kg. The results for the LR50 with Aphidius rhopalosiphi and in the series with Typhlodromus pyri were > 18.8 g/ha and 11.4 g/ha, respectively.
